Experimental findings from PubChem BioAssay AID179 (DTP/NCI, 2004) are described below.

The term EC50 denotes the concentration that produces a half-maximal response. The IC50 is the concentration that inhibits the measured activity by half.

Values joined by “and” are separate entries in the source; they are usually repeats but may differ in a detail not shown here. Identical values can stand only once. Active and inactive are the calls of the source.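 Rule for the calls: active = compounds giving half or more protection of infected cells from virus-caused growth loss, again on retest; inactive = the rest.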

For the assay, the system named is CEM cells HIV-1 protection, formazan growth assay. Put plainly: NCI AIDS Antiviral Assay. The conditions noted are these: for IC50: measured here: growth of uninfected CEM cells. An outline of the steps:
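Human CEM cells, uninfected and HIV-1-infected, received five drug concentrations, and growth was read by soluble formazan assay. Compounds giving at least 50% protection were retested; reproducible 100% protection defined confirmed active.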

For the compound `C/C(=N\N=C(\N)SB(F)F)c1ccc2ccccc2c1`, the EC50 is greater than 200 µM and the IC50 is 29.5 µM.

Take `O=S1CSCS1` (stereo unspecified): the EC50 was greater than 200 µM and the IC50 was greater than 200 µM. `O=C1COC(c2ccccc2O)=NN1CCCN1CCCC1`: the EC50 is greater than 525 µM and the IC50 is 372 µM. For `CCCC(CCC)C(=O)[O-].CCCC(CCC)C(=O)[O-].CCCC(CCC)C(=O)[O-].CCCC(CCC)C(=O)[O-].[Cu+2].[Cu+2]`, the EC50 is greater than 50.1 µM and the IC50 is 7.41 µM. For the compound `CCOc1ccccc1NC(=O)/C=C1\NC(=O)CS1`, the EC50 is greater than 158 µM and the IC50 turned out to be 129 µM. Consider `CC(C)(C)c1cc(C(=O)[O-])c([OH2+])c(C(C)(C)C)c1.CC(C)(C)c1cc(C(=O)[O-])c([OH2+])c(C(C)(C)C)c1.[Mn+2]`, for which the EC50 was greater than 85.1 µM and the IC50 came to 33.9 µM. On to `COc1cc(C2c3cc4c(cc3OC(N3CCOCC3)C2C)OCO4)cc(OC)c1OC` (stereo unspecified), for which the EC50 is greater than 200 µM and the IC50 came to 1.86 µM. For `CC1(C)COC2(C)ON12` (stereo unspecified) the same measures were greater than 200 µM and greater than 200 µM.

As to `O=C(N/N=C/c1cccc(O)c1O)N/N=C/c1cccc(O)c1O`, the EC50 is greater than 200 µM and the IC50 turned out to be 6.76 µM. In the case of `NC(=O)N/N=C1/C2CC3CC(C2)C1C3` (stereo unspecified), the EC50 was greater than 200 µM and the IC50 is greater than 200 µM.

Turning to `Nc1ccc2c(c1)C1=NNC(=O)CC1C2` (stereo unspecified), the result was inactive. Turning to `Cc1cn(CC2OCC(CO)O2)c(=O)[nH]c1=O` (stereo unspecified), the EC50 was greater than 1290 µM and the IC50 came to 1100 µM. Take `NC(=S)N/N=C(\C(=O)Nc1cccc([N+](=O)[O-])c1)c1nc2ccc([N+](=O)[O-])cc2[nH]c1=O`: the EC50 is greater than 288 µM and the IC50 was 95.5 µM. `CCC(=O)COc1ccc(NC(NC(=O)C(C(F)(F)F)C(F)(F)F)(C(F)(F)F)C(F)(F)F)cc1`: the result was inactive. As to `COc1ccc(C[C@H]2COC(=O)[C@@H]2Cc2cc(OC)c(O)c(OC)c2)cc1OC`, the EC50 was greater than 200 µM and the IC50 worked out at 39.8 µM.

Regarding `Cc1ccc(NC(=O)CC2C(=O)Nc3ccccc3S2(=O)=O)c(C)c1` (stereo unspecified), the EC50 was greater than 4.07 µM and the IC50 was greater than 4.07 µM. As for `C1CN2CCN3CCN4CCN1[P+]243`, the outcome was inactive. As to `COc1ccc(NCC(=O)Nn2c(C)nc3ccc(S(=O)(=O)Nc4ccc(OC)cc4)cc3c2=O)cc1`, the EC50 was greater than 100 µM and the half-inhibitory concentration (IC50) is greater than 100 µM. Consider `CC(C)(C)c1cc(CCC(=O)Nc2ccc(Cl)cc2Cl)nc(N)n1`, for which the EC50 was greater than 135 µM and the IC50 was greater than 135 µM. Consider `COc1c(Cl)cc(C(=CCNC(=O)C[C@H]2CC[C@@]3(C)[C@@H](CC[C@@H]4[C@@H]3CC[C@]3(C)[C@@H](CC(=O)NCC=C(c5cc(Cl)c(OC)c(C(=O)O)c5)c5cc(Cl)c(OC)c(C(=O)O)c5)CC[C@@H]43)C2)c2cc(Cl)c(OC)c(C(=O)O)c2)cc1C(=O)O`, for which the EC50 is 42.7 µM and the IC50 stood at 186 µM. Turning to `COC1CC(COCc2ccccc2)CC(OC)O1` (stereo unspecified), the EC50 is greater than 200 µM and the IC50 is 66.1 µM. With `CC(=O)O[C@]1(C(C)=O)CC[C@H]2[C@@H]3C[C@H](C)C4=CCCC[C@]4(C)[C@H]3CC[C@@]21C`, the EC50 was greater than 100 µM and the IC50 was greater than 100 µM. In the case of `Cc1nn2c(N)cc(=O)nc2nc1/C=C/c1ccc(N(C)C)cc1`, the EC50 is greater than 200 µM and the IC50 was determined as 4.27 µM. For `O=C1c2ccccc2C(=O)N1C/C=N/NS(=O)(=O)c1cccc([N+](=O)[O-])c1` the same measures were greater than 646 µM and greater than 646 µM. Consider `COC1=CC(=O)c2c(O)c3c(c(O)c2C1=O)C=C(C)OC3O` (stereo unspecified), for which the result was inactive. On to `COc1cc(-c2cccs2)sc1-c1cccs1`, for which the EC50 is greater than 9.77 µM and the IC50 is greater than 9.77 µM. With `O=C1/C(=C/c2ccc(Cl)cc2)CNC/C1=C\c1ccc(Cl)cc1`, the EC50 is greater than 151 µM; the 50% inhibitory concentration (IC50) is 10.5 µM and 1.05 µM. With `O=C1Cc2cn[nH]c2-c2ccccc2N1`, the result was inactive. For the compound `Fc1ccc(C2SCc3nc4ccccc4n32)cc1` (stereo unspecified), the outcome was inactive.

Take `Nc1[nH]c(=S)[nH]c(=O)c1N=O`: the EC50 is greater than 200 µM and the IC50 was greater than 200 µM. Regarding `Cc1cc(O)c2c(c1)C(=O)c1cc(O)cc(O)c1C2=O`, the result was inactive. Take `CCN(CC)C1Oc2cc3c(cc2C(c2cccc(OC)c2O)C1C)OCO3` (stereo unspecified): the EC50 was greater than 200 µM and the IC50 amounted to 3.8 µM.

On to `COc1ccc(C23C(=O)c4ccccc4N2O[C@H]2C(=O)N(c4ccccc4)C(=O)[C@H]23)cc1` (stereo partly specified), for which the EC50 was greater than 31.6 µM and the IC50 is greater than 31.6 µM. Take `CCCCCCCCCCCCSS(=O)(=O)c1ccccc1`: the EC50 is greater than 75.9 µM and the IC50 is greater than 75.9 µM. Turning to `OC1C2CCCC1C1(CCCCC1)C1CCCCC21O` (stereo unspecified), the result was inactive. In the case of `O=c1[nH]c2ccccc2c(=O)c2ccccc12`, the EC50 is greater than 32.4 µM and the IC50 was greater than 32.4 µM. In the case of `O=c1oc2ccccc2c2nc3ccc(Cl)cc3cc12`, the EC50 was greater than 200 µM and the IC50 stood at 5.13 µM. As for `COc1ccc(OC)c2c1-c1nnnn1CCC2(C)C`, the EC50 was 132 µM and the IC50 is greater than 200 µM. With `Cc1cccc2c(N)c3cccc(C(=O)NCCCNCCN)c3nc12`, the EC50 is greater than 0.2 µM and the IC50 is 0.12 µM. On to `CCOC(=O)C1=C(C)CC2C(=O)OC(=O)C2C1(C)C` (stereo unspecified), for which the result was inactive. For `Clc1nc(Cl)nc(-c2ccccc2)n1`, the EC50 was greater than 200 µM and the IC50 is greater than 200 µM.

For `O=C(Cc1ccccc1)NN1C(=O)C(Cl)C1c1ccccc1` (stereo unspecified), the EC50 was greater than 31.6 µM and the IC50 is greater than 31.6 µM. On to `CC1=NN(c2nc(N)nc(C(C)Sc3cc(Cl)c(C)cc3S(N)(=O)=O)n2)C(C)(C)C1` (stereo unspecified), for which the EC50 is greater than 200 µM and the half-inhibitory concentration (IC50) was determined as 42.7 µM. Take `Nc1ccc(Nc2cc(=O)[nH]c(=O)[nH]2)cc1Cl`: the EC50 was greater than 200 µM and the IC50 is greater than 200 µM.

Take `NC(N)=NCCCC(N=c1c2ccccc2n(O)c2ccccc12)C(=O)O` (stereo unspecified): the outcome was inactive. As to `COC(=O)/C=C(/C=C1/C(C#N)=C(N)N(c2ccc(Cl)cc2)C1(C)/C(=C\C(=O)OC)C(=O)OC)C(=O)OC` (stereo unspecified), the EC50 is greater than 200 µM and the IC50 amounted to 8.91 µM. For `CN(C)C(=O)Sc1nnc(C(C)(C)C)o1` the same measures were greater than 200 µM and greater than 100 µM. For the compound `N#Cc1nc(COCCOCc2ccc(F)cc2)oc1N`, the EC50 was greater than 200 µM and the IC50 was greater than 200 µM. As to `COC(=O)C1=Nc2c(C)nn(-c3ccccc3)c2N=C(c2ccc([N+](=O)[O-])cc2)C1`, the EC50 is greater than 200 µM and the IC50 is greater than 200 µM. `Cc1cccc(NC(=O)C(=O)C(C(=O)c2ccc3ccccc3c2)C2OC(=O)c3ccccc32)c1C` (stereo unspecified): the EC50 was greater than 28.2 µM and the IC50 came out at 26.3 µM. As to `COc1c(-c2ccc3c(c2)OCO3)oc2cc3c(c(OC)c2c1=O)OCO3`, the EC50 is greater than 200 µM and the IC50 was greater than 200 µM. For the compound `CC1CCC(NC(=O)N(CCCl)N=O)CC1` (stereo unspecified), the EC50 was greater than 145 µM and the IC50 is greater than 145 µM.

Take `CCNC(=O)c1c(O)c2ccccc2[nH]c1=O`: the EC50 is greater than 200 µM and the IC50 was greater than 200 µM. Regarding `[Cu+2].[Cu+2].[Cu+2].[Cu+2].[O-]CCN(CC[OH2+])CC[OH2+].[O-]CCN(CC[OH2+])CC[OH2+].[O-]CCN(CC[OH2+])CC[OH2+].[O-]CCN(CC[OH2+])CC[OH2+]`, the EC50 is greater than 200 µM and the IC50 came out at 4.79 µM.

`COC=C(c1cc(Br)c(OC)c(C(=O)OC)c1)c1cc(Br)c(OC)c(C(=O)OC)c1`: the EC50 was greater than 200 µM and the IC50 turned out to be 13.5 µM. In the case of `Cc1ccccc1NC(=O)C(=O)C(C#N)c1ccccc1C` (stereo unspecified), the EC50 was greater than 17.8 µM and the IC50 was greater than 17.8 µM. Turning to `COC1C(O)C(C)OC(OC2C(Oc3cccc4c(O)c5c(=O)oc6ccc(C)c7c(=O)oc(c34)c5c67)OC(C)C3O[C@H](c4ccccc4)OC32)C1O` (stereo partly specified), the EC50 was greater than 7.24 µM and the IC50 amounted to 0.0912 µM.

In the case of `O=C(COC(=O)c1cccc2c(=O)c3ccccc3[nH]c12)Nc1ccccc1`, the outcome was inactive. Consider `O=C1c2cccc(O)c2Cc2c(O)cc(CO)cc21`, for which the EC50 is greater than 100 µM and the IC50 turned out to be 52.5 µM. In the case of `O=c1oc2c(ccc3c(O)cccc32)c2c1CCCC2`, the EC50 was greater than 200 µM and the IC50 is greater than 200 µM.

Turning to `O=c1oc2ccccc2n1Cc1ccc(Cl)cc1`, the EC50 is greater than 200 µM and the IC50 was found to be 79.4 µM. For `O=C1c2c(F)c(F)c(F)c(F)c2SC2=NCCN12`, the EC50 was greater than 20 µM and the IC50 came to 2 µM.

With `CC(=O)OCC1OC(n2c(=S)n(-c3ccccc3)c(=S)c3ccccc32)C(OC(C)=O)C(OC(C)=O)C1OC(C)=O` (stereo unspecified), the EC50 is greater than 16.6 µM and the IC50 was greater than 16.6 µM. Regarding `CCSc1nnc(CSc2nc(-c3ccccc3)c(-c3ccccc3)[nH]2)n1-c1ccccc1`, the EC50 is greater than 21.4 µM and the IC50 is greater than 21.4 µM. With `Cc1ccc(C(=O)c2ccccc2)c(C(=O)O)c1`, the EC50 is greater than 200 µM and the IC50 was greater than 200 µM. With `O=C(Nc1ccc(O)c(C(=O)O)c1)c1ccccc1`, the EC50 is greater than 200 µM and the IC50 is greater than 200 µM. For `CCOC(=O)C1=CNC(C(=O)OCC)C1c1cccn1-c1ccc(Cl)cc1[N+](=O)[O-]` (stereo unspecified), the EC50 was greater than 200 µM and the concentration for half-maximal inhibition (IC50) turned out to be 26.3 µM.

As for `O=[N+]([O-])c1ccc(CSc2nn(Cc3ccc([N+](=O)[O-])cc3)cc3ncnc2-3)cc1`, the EC50 was greater than 200 µM and the IC50 amounted to 19.5 µM.

In the case of `CC(Cc1ccccc1)NC1=NCCO1` (stereo unspecified), the EC50 is greater than 200 µM and the IC50 stood at 145 µM.

Turning to `CC(C)CCCC(C)[C@H]1CC[C@H]2[C@@H]3CC[C@H]4C[C@@H](CCC=C(c5cc(Cl)c(OCc6cccc([N+](=O)[O-])c6)c(C(=O)O)c5)c5cc(Cl)c(OCc6cccc([N+](=O)[O-])c6)c(C(=O)O)c5)CC[C@]4(C)[C@H]3CC[C@]12C` (stereo partly specified), the EC50 is 95.5 µM and the IC50 was greater than 200 µM. For `Cc1ccc(C2SCc3nc4ccccc4n32)cc1` (stereo unspecified), the EC50 is greater than 200 µM and the IC50 turned out to be 1.02 µM.
